≈ marks a conversion by molar mass, not a printed value. Read-outs that look alike come from different tables or passages of the source.

The subject of data set [1] is prostate cancer cell line (DU-145). Put plainly: Antiproliferative activity, MTT assay. The conditions noted are these: mean ± SD (n = 3), converted from µg/mL.
Method: (§1) In both the assays, the IC50 values of the tested compounds were compared with the positive control Methotrexate (Mtx). The reduction of the soluble MTT to blue-color formazan is the principle underlined in MTT assay and such change is chiefly due to the action of intracellular mitochondrial reductase in the living cells. […] Later, the desired concentrations of the compounds were achieved by dissolving in sterile water. The cells were transferred on to 96-well plates at 100 µL total volume and with a density of 1 × 10^4 cells per well. The cells were permitted to adhere for a period of 24 h and then the assay medium was replaced with a fresh medium containing target compounds and incubated in DMEM with 10% fetal bovine serum (FBS) medium at 37 °C for an additional 48 h. Later, the medium was replaced with 90 μL of fresh DMEM without FBS. The above wells were treated with 10 μL of MTT reagent (5 mg/mL of stock solution in DMEM without FBS) and incubated for 3–4 h at 37 °C. The formed blue formazan crystals were dissolved in 200 μL of DMSO. The optical density was then determined at 570 nm using a micro plate reader. The assay was executed in triplicate for three independent experiments. […] The IC50 values measured in µg/mL for the antiproliferative were converted and expressed in µM. Additionally, all the compounds were also assessed for their cytotoxic activity on the normal human liver cell lines (L02) using the same protocol discussed above.
Data set [2] relates to normal human liver cell lines (L02). Put plainly: Cytotoxic activity on normal cells, MTT assay. The data set is classed as cell-based. To be noted: for IC50: Homo sapiens, same protocol as DU-145, read-out: Normal Liver Cell Line (L02) (IC50 in µg/mL).
Method: as §1
In data set [3] the test system is Mycobacterium tuberculosis H37Rv strain. The data set is described as follows: Antitubercular activity, broth dilution MIC. Type of data set: cell-based. The conditions noted are these: for MIC: Mycobacterium tuberculosis, H37RV, 504 h, read-out: Mtb (H37Rv Strain) (MIC in µM); for MIC / Mtb (H37Rv Strain) (MIC in µM): broth dilution, 21 days at 37 °C, mean of three independent experiments, converted from µg/mL; for antitubercular activity of F compounds over the Cl-containing compounds: MIC 20.68 µM (9, 11) vs. 78.46 µM (1, 3); for antitubercular potency relative to the standard pyrazinamide: ratio of MICs, pyrazinamide MIC 25.34 ± 2 µM. In general terms: In broth dilution the organism is exposed to a series of concentrations in liquid medium.

The mark [4] stands for this setting: Homo sapiens, DU-145, 48 h, read-out: Prostate Cancer Cell Line (DU-145) (IC50 in µM), MTT, 48 h.
[5] abbreviates: read-out: Prostate Cancer Cell Line (DU-145) (IC50 in µM), MTT, 48 h.

Regarding `O=C(/C=C/c1sc(Cl)nc1Cl)c1ccccc1Cl` [Compound 1, (E)-1-(2-chlorophenyl)-3-(2,4-dichlorothiazol-5-yl)prop-2-en-1-one], the melting point (as a rule, the temperature, or range, at which the solid turns liquid) turned out to be 80 °C. Moreover, the IC50 in data set [1] (setting [4]) came out at 100 ± 2 µM. Also, the IC50 in data set [2] is > 70 µg/mL. The MIC (commonly the lowest concentration that inhibits growth of the organism) in data set [3] was determined as 78.5 ± 1 µM (≈ 25 µg/mL).
In the case of `O=C(/C=C/c1sc(Cl)nc1Cl)c1cccc(Cl)c1` [Compound 2, (E)-1-(3-chlorophenyl)-3-(2,4-dichlorothiazol-5-yl)prop-2-en-1-one], the melting point was found to be 88 °C. Further, the IC50 in data set [1] (setting [4]) is 1607 ± 2 µM. Further, the IC50 in data set [2] is > 70 µg/mL. In addition, the minimum inhibitory concentration (MIC) in data set [3] was determined as 313.9 ± 1 µM (≈ 100 µg/mL).
Taken in the same sequence, the figures for `O=C(/C=C/c1sc(Cl)nc1Cl)c1ccc(Cl)cc1` [Compound 3, (E)-1-(4-chlorophenyl)-3-(2,4-dichlorothiazol-5-yl)prop-2-en-1-one] were 104 °C, 401.8 ± 1 µM, > 70 µg/mL and 78.5 ± 1 µM (≈ 25 µg/mL).
In turn, `O=C(/C=C/c1sc(Cl)nc1Cl)c1cccc(Cl)c1Cl` [Compound 4, (E)-1-(2,3-dichlorophenyl)-3-(2,4-dichlorothiazol-5-yl)prop-2-en-1-one] came in with a melting point of 89 °C. In addition, the IC50 in data set [1] (setting [4]) worked out at 181.3 ± 1 µM. For the same molecule, in data set [2], the IC50 was > 70 µg/mL. Also, in data set [3], the MIC was found to be 142 ± 2 µM (≈ 50 µg/mL).
On the same counts, the results for `O=C(/C=C/c1sc(Cl)nc1Cl)c1cc(Cl)ccc1Cl` [Compound 6, (E)-1-(2,5-dichlorophenyl)-3-(2,4-dichlorothiazol-5-yl)prop-2-en-1-one] are 84 °C, 2900.5 ± 2 µM, > 70 µg/mL and 141.6 ± 1 µM (≈ 50 µg/mL).
As to `O=C(/C=C/c1sc(Cl)nc1Cl)c1ccc(Cl)c(Cl)c1` [Compound 8, (E)-1-(3,4-dichlorophenyl)-3-(2,4-dichlorothiazol-5-yl)prop-2-en-1-one], the melting point worked out at 106 °C. For the same molecule, the IC50 in data set [1] (setting [4]) came out at 1450.3 ± 1 µM. For the same molecule, the IC50 in data set [2] was > 70 µg/mL. Moreover, the MIC in data set [3] amounted to 141.6 ± 1 µM (≈ 50 µg/mL).
The molecule `O=C(/C=C/c1sc(Cl)nc1Cl)c1ccccc1F` [Compound 9, (E)-1-(2-fluorophenyl)-3-(2,4-dichlorothiazol-5-yl)prop-2-en-1-one] registered a melting point of 91 °C. In data set [1] (setting [4]), the IC50 amounted to 53 ± 2 µM. Moreover, the IC50 in data set [2] is > 70 µg/mL. In data set [3], the “antitubercular activity of F compounds over the Cl-containing compounds” value was 3.79 fold and the MIC is 20.7 ± 2 µM (≈ 6.25 µg/mL).
`O=C(/C=C/c1sc(Cl)nc1Cl)c1cccc(F)c1` [Compound 10, (E)-1-(3-fluorophenyl)-3-(2,4-dichlorothiazol-5-yl)prop-2-en-1-one] yielded a melting point of 112 °C. Besides, the IC50 in data set [1] (setting [4]) came out at 423.6 ± 2 µM. The IC50 in data set [1] (setting [5]) was determined as 847.3 ± 2 µM. The IC50 in data set [2] was > 70 µg/mL. In data set [3], the MIC was 165.5 ± 1 µM (≈ 50 µg/mL).
`O=C(/C=C/c1sc(Cl)nc1Cl)c1ccc(F)cc1` [Compound 11, (E)-1-(4-fluorophenyl)-3-(2,4-dichlorothiazol-5-yl)prop-2-en-1-one]: the melting point was found to be 126 °C. In addition, the IC50 in data set [1] (setting [4]) is 847.3 ± 2 µM. Besides, the IC50 in data set [1] (setting [5]) amounted to 423.6 ± 2 µM. In addition, in data set [2], the IC50 was > 70 µg/mL. Moreover, in data set [3], the “antitubercular activity of F compounds over the Cl-containing compounds” value is listed as 3.79 fold, the MIC was 20.7 ± 2 µM (≈ 6.25 µg/mL) and the “Mtb (H37Rv Strain) (MIC in µM)” value is listed as 20.68 ± 1 µM.
In turn, `O=C(/C=C/c1sc(Cl)nc1Cl)c1ccc(F)cc1F` [Compound 12, (E)-1-(2,4-difluorophenyl)-3-(2,4-dichlorothiazol-5-yl)prop-2-en-1-one] yielded a melting point of 134 °C. Also, the IC50 in data set [1] (setting [4]) came to 100 ± 1 µM. In addition, the IC50 in data set [2] was > 70 µg/mL. Besides, in data set [3], the MIC is 2.43 µM (≈ 0.778 µg/mL), the “Mtb (H37Rv Strain) (MIC in µM)” value worked out at 2.43 ± 1 µM and the “antitubercular potency relative to the standard pyrazinamide” value turned out to be 10.42 times.
In the case of `O=C(/C=C/c1sc(Cl)nc1Cl)c1cc(F)ccc1F` [Compound 13, (E)-1-(2,5-difluorophenyl)-3-(2,4-dichlorothiazol-5-yl)prop-2-en-1-one], the melting point came to 129 °C. For the same molecule, the IC50 in data set [1] (setting [4]) is 3198.7 ± 2 µM. Moreover, in data set [2], the IC50 is > 70 µg/mL. The MIC in data set [3] came out at 39 ± 1 µM (≈ 12.5 µg/mL).
`O=C(/C=C/c1sc(Cl)nc1Cl)c1c(F)cccc1F` [Compound 14, (E)-1-(2,6-difluorophenyl)-3-(2,4-dichlorothiazol-5-yl)prop-2-en-1-one] showed a melting point of 141 °C. Further, in data set [1] (setting [4]), the IC50 is 25 ± 2 µM. Further, the IC50 in data set [2] was > 70 µg/mL. In data set [3], the MIC came to 9.74 ± 2 µM (≈ 3.12 µg/mL) and the “antitubercular potency relative to the standard pyrazinamide” value came to 2.6 times.
In turn, `O=C(/C=C/c1sc(Cl)nc1Cl)c1ccc(F)c(F)c1` [Compound 15, (E)-1-(3,4-difluorophenyl)-3-(2,4-dichlorothiazol-5-yl)prop-2-en-1-one] registered a melting point of 145 °C. In addition, the IC50 in data set [1] (setting [4]) is 799.7 ± 1 µM. Further, the IC50 in data set [2] is > 70 µg/mL. The MIC in data set [3] worked out at 39 ± 1 µM (≈ 12.5 µg/mL).
On the same counts, the results for `O=C(/C=C/c1sc(Cl)nc1Cl)c1cc(F)cc(F)c1` [Compound 16, (E)-1-(3,5-difluorophenyl)-3-(2,4-dichlorothiazol-5-yl)prop-2-en-1-one] are 109 °C, 3198.7 ± 1 µM, > 70 µg/mL and 156 ± 2 µM (≈ 50 µg/mL).
Molecule `O=C(/C=C/c1sc(Cl)nc1Cl)c1ccccn1` [Compound 17, (E)-3-(2,4-dichlorothiazol-5-yl)-1-(pyridin-2-yl)prop-2-en-1-one] registered a melting point of 156 °C. For the same molecule, the IC50 in data set [1] (setting [4]) is 14 ± 1 µM. Besides, the IC50 in data set [2] was > 70 µg/mL. Besides, in data set [3], the MIC turned out to be 350.7 ± 2 µM (≈ 100 µg/mL).
Taken in the same sequence, the figures for `O=C(/C=C/c1sc(Cl)nc1Cl)c1cccnc1` [Compound 18, (E)-3-(2,4-dichlorothiazol-5-yl)-1-(pyridin-3-yl)prop-2-en-1-one] were 162 °C, 28.1 ± 1 µM, > 70 µg/mL and 701.4 ± 1 µM (≈ 200 µg/mL).
Taken in the same sequence, the figures for `O=C(/C=C/c1sc(Cl)nc1Cl)c1ccncc1` [Compound 19, (E)-3-(2,4-dichlorothiazol-5-yl)-1-(pyridin-4-yl)prop-2-en-1-one] were 177 °C, 14 ± 1 µM, > 70 µg/mL and 350.7 ± 2 µM (≈ 100 µg/mL).
On the same counts, the results for `O=C(/C=C/c1sc(Cl)nc1Cl)c1nccs1` [Compound 20, (E)-3-(2,4-dichlorothiazol-5-yl)-1-(thiazol-2-yl)prop-2-en-1-one] are 127 °C, 6.86 ± 1 µM, > 70 µg/mL and 343.4 ± 1 µM (≈ 100 µg/mL).
As to `CN(Cc1cnc2nc(N)nc(N)c2n1)c1ccc(C(=O)N[C@@H](CCC(=O)O)C(=O)O)cc1` [Methotrexate, reference compound], the IC50 is 11 ± 1 µM in data set [1] (setting [4]) and > 70 µg/mL in data set [2].
Consider `NC(=O)c1cnccn1` [Pyrazinamide, reference compound], for which, in data set [3], the MIC worked out at 25.3 µM (≈ 3.12 µg/mL) and the “Mtb (H37Rv Strain) (MIC in µM)” value is recorded as 25.34 ± 2 µM.
As for “(E)-1-(2,4-dichlorophenyl)-3-(2,4-dichlorothiazol-5-yl)prop-2-en-1-one [Compound 5]”, the IC50 in data set [1] (setting [5]) was 90.6 ± 1 µM. Besides, the “Normal Liver Cell Line (L02) (IC50 in µg/mL)” value in data set [2] (same protocol as DU-145) is >70 µg/mL. Further, the “Mtb (H37Rv Strain) (MIC in µM)” value in data set [3] is on record as 35.40 ± 2 µM.
